Test results taken from patent US8987195B2 (priority 2012, dated 2015).
Like-named read-outs stand apart in the source and are kept apart here.

Legend:
[1] = target: HCV NS3/4A protease genotype 1b (Hepatitis C virus genotype 1b, UniProt P26663); test: HCV NS3/4A protease time-resolved fluorescence (TRF) assay, Ki against genotype 1b; format: biochemical
Procedure, shortened: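 First, protease (genotype 1b 0.2 nM, A156T 0.4 nM, genotype 3a 0.025 nM) is preincubated 30 min with inhibitor. Next, 25 nM TRF substrate starts the reaction, run 2.5 h at room temperature. Finally, europium fluorescence is read and Ki calculated from IC50.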

HCV genotype 1b replicon = test: HCV replicon assay, genotype 1b replicon EC50; format: cell-based, Hepatitis C virus; conditions: Hepatitis C virus, read-out: EC50 [gt-1b]
Procedure, shortened: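 Assay format: compound titration on stable replicon cells, no G418 during treatment, 24 to 48 hours. Lysates were assayed for replicon RNA (hybridization/protection or TaqMan) or luciferase; EC50 fitted to four parameters against DMSO.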

[2] = IC50 [gt-1b] (nM), NS3/4A genotype 1b, enzyme 0.2 nM
[3] = IC50 [gt-1b], NS3/4A protease TRF assay, genotype 1b enzyme 0.2 nM
[4] = IC50 [gt-1b] (nM), NS3/4A genotype 1b, enzyme 0.2 nM, K+ salt

Compound	IC50 [1, 2]	EC50 (HCV genotype 1b replicon; genotype 1b replicon)	also measured
Cc1nc2ccccc2c2c1O[C@]1(CC2)C[C@H]2C(=O)N[C@]3(C(=O)NS(=O)(=O)C4(C)CC4)C[C@H]3/C=C\CCCCC[C@H](NC(=O)OC3CC(F)(F)C3(F)F)C(=O)N2C1 (stereo partly drawn) [Example 320, 2,2,3,3-tetrafluorocyclobutyl [(2R,6S,12Z,13aS,14aR,16aS)-5′-methyl-14a-{[(1-methylcyclopropyl)sulfonyl]carbamoyl}-5,16-dioxo-1,1′,2′,5,6,7,8,9,10,11,13a,14,14a,15,16,16a-hexadecahydrospiro[cyclopropa[e]pyrrolo[1,2-a][1,4]diazacyclopentadecine-2,3′-pyrano[2,3-c]quinolin]-6-yl]carbamate]	0.013 nM	4.44 nM	–
CC(C)(C)OC(=O)N[C@H]1CCCCC/C=C\[C@@H]2C[C@@]2(C(=O)NS(=O)(=O)C2(C)CC2)NC(=O)[C@@H]2C[C@]3(CCc4c(c(C(F)(F)F)nc5ccc(OCF)cc45)O3)CN2C1=O [Example 458, tert-butyl [(2R,6S,12Z,13aS,14aR,16aS)-9′-(fluoromethoxy)-14a-{[(1-methylcyclopropyl)sulfonyl]carbamoyl}-5,16-dioxo-5′-(trifluoromethyl)-1,1′,2′,5,6,7,8,9,10,11,13a,14,14a,15,16,16a-hexadecahydrospiro[cyclopropa[e]pyrrolo[1,2-a][1,4]diazacyclopentadecine-2,3′-pyrano[2,3-c]quinolin]-6-yl]carbamate]	–	–	IC50 [1, 3]: 0.015 nM; EC50 (HCV genotype 1b replicon; HCV replicon, genotype 1b): 1.43 nM
Cc1nc2ccccc2c2c1O[C@]1(CC2)C[C@H]2C(=O)N[C@]3(C(=O)NS(=O)(=O)C4(C)CC4)C[C@H]3/C=C\CCCCC[C@H](NC(=O)OC3(C4CC4)CC3)C(=O)N2C1 [Example 131, 1,1′-bi(cyclopropyl)-1-yl [(2R,6S,12Z,13aS,14aR,16aS)-5′-methyl-14a-{[(1-methylcyclopropyl)sulfonyl]carbamoyl}-5,16-dioxo-1,1′,2′,5,6,7,8,9,10,11,13a,14,14a,15,16,16a-hexadecahydrospiro[cyclopropa[e]pyrrolo[1,2-a][1,4]diazacyclopentadecine-2,3′-pyrano[2,3-c]quinolin]-6-yl]carbamate]	0.003 nM	1.28 nM	–
COc1ccc2nc(C(F)(F)F)c3c(c2c1)CC[C@]1(C[C@H]2C(=O)N[C@]4(C(=O)NS(=O)(=O)C5(C)CC5)C[C@H]4/C=C\CCCCC[C@H](NC(=O)OC(C)(C)C(F)(F)F)C(=O)N2C1)O3 [Example 348, 1,1,1-trifluoro-2-methylpropan-2-yl [(2R,6S,12Z,13aS,14aR,16aS)-9′-methoxy-14a-{[(1-methylcyclopropyl)sulfonyl]carbamoyl}-5,16-dioxo-5′-(trifluoromethyl)-1,1′,2′,5,6,7,8,9,10,11,13a,14,14a,15,16,16a-hexadecahydrospiro[cyclopropa[e]pyrrolo[1,2-a][1,4]diazacyclopentadecine-2,3′-pyrano[2,3-c]quinolin]-6-yl]carbamate]	–	–	IC50 [1, 4]: 0.046 nM; EC50 (HCV genotype 1b replicon; genotype 1b replicon, K+ salt): 9.23 nM
COc1ccc2nc(C(C)C)c3c(c2c1)CC[C@]1(C[C@H]2C(=O)N[C@]4(C(=O)NS(=O)(=O)C5(C)CC5)C[C@H]4/C=C\CCCCC[C@H](NC(=O)OC(C)(C)CCS(C)(=O)=O)C(=O)N2C1)O3 [Example 243, 2-methyl-4-(methylsulfonyl)butan-2-yl [(2R,6S,12Z,13aS,14aR,16aS)-9′-methoxy-14a-{[(1-methylcyclopropyl)sulfonyl]carbamoyl}-5,16-dioxo-5′-(propan-2-yl)-1,1′,2′,5,6,7,8,9,10,11,13a,14,14a,15,16,16a-hexadecahydrospiro[cyclopropa[e]pyrrolo[1,2-a][1,4]diazacyclopentadecine-2,3′-pyrano[2,3-c]quinolin]-6-yl]carbamate]	–	–	IC50 [1, 4]: 0.012 nM; EC50 (HCV genotype 1b replicon; genotype 1b replicon, K+ salt): 43 nM
Cc1nc2ccccc2c2c1O[C@]1(CC2)C[C@H]2C(=O)N[C@]3(C(=O)NS(=O)(=O)C4(C)CC4)C[C@H]3/C=C\CCCCC[C@H](NC(=O)N(C)C)C(=O)N2C1 [Example 228, (2R,6S,12Z,13aS,14aR,16aS)-6-[(dimethylcarbamoyl)amino]-5′-methyl-N-[(1-methylcyclopropyl)sulfonyl]-5,16-dioxo-1,1′,2′,6,7,8,9,10,11,13a,14,15,16,16a-tetradecahydrospiro[cyclopropa[e]pyrrolo[1,2-a][1,4]diazacyclopentadecine-2,3′-pyrano[2,3-c]quinoline]-14a(5H)-carboxamide]	0.025 nM	6.63 nM	–
Cc1nc2ccc(OC(F)F)cc2c2c1O[C@]1(CC2)C[C@H]2C(=O)N[C@]3(C(=O)NS(=O)(=O)C4(C)CC4)C[C@H]3/C=C\CCCCC[C@H](NC(=O)OC3CCCC3)C(=O)N2C1 [Example 268, cyclopentyl [(2R,6S,12Z,13aS,14aR,16aS)-9′-(difluoromethoxy)-5′-methyl-14a-{[(1-methylcyclopropyl)sulfonyl]carbamoyl}-5,16-dioxo-1,1′,2′,5,6,7,8,9,10,11,13a,14,14a,15,16,16a-hexadecahydrospiro[cyclopropa[e]pyrrolo[1,2-a][1,4]diazacyclopentadecine-2,3′-pyrano[2,3-c]quinolin]-6-yl]carbamate]	–	–	IC50 [1, 4]: 0.003 nM; EC50 (HCV genotype 1b replicon; genotype 1b replicon, K+ salt): 4.03 nM
COc1ccc2nc(C)c3c(c2c1)CC[C@]1(C[C@H]2C(=O)N[C@]4(C(=O)NS(=O)(=O)C5(C)CC5)C[C@H]4/C=C\CCCCC[C@H](Nc4ncccc4C)C(=O)N2C1)O3 [Example 429, (2R,6S,12Z,13aS,14aR,16aS)-9′-methoxy-5′-methyl-N-[(1-methylcyclopropyl)sulfonyl]-6-[(3-methylpyridin-2-yl)amino]-5,16-dioxo-1,1′,2′,6,7,8,9,10,11,13a,14,15,16,16a-tetradecahydrospiro[cyclopropa[e]pyrrolo[1,2-a][1,4]diazacyclopentadecine-2,3′-pyrano[2,3-c]quinoline]-14a(5H)-carboxamide]	–	–	IC50 [1, 3]: 0.194 nM; EC50 (HCV genotype 1b replicon; HCV replicon, genotype 1b): 4.28 nM
COc1ccc2nc(C3CC3)c3c(c2c1)C(F)(F)C[C@]1(C[C@H]2C(=O)N[C@]4(C(=O)NS(=O)(=O)C5(C)CC5)C[C@H]4/C=C\CCCCC[C@H](NC(=O)O[C@@H](C)C(C)C)C(=O)N2C1)O3 [Example 250, (2S)-3-methylbutan-2-yl [(2S,6S,12Z,13aS,14aR,16aS)-5′-cyclopropyl-1′,1′-difluoro-9′-methoxy-14a-{[(1-methylcyclopropyl)sulfonyl]carbamoyl}-5,16-dioxo-1,1′,2′,5,6,7,8,9,10,11,13a,14,14a,15,16,16a-hexadecahydrospiro[cyclopropa[e]pyrrolo[1,2-a][1,4]diazacyclopentadecine-2,3′-pyrano[2,3-c]quinolin]-6-yl]carbamate]	0.024 nM	6.5 nM	–
CCc1nc2ccc(OC)cc2c2c1O[C@]1(CC2)C[C@H]2C(=O)N[C@]3(C(=O)NS(=O)(=O)C4(C)CC4)C[C@H]3/C=C\CCCCC[C@H](NC(=O)O[C@H](C)C(C)C)C(=O)N2C1 [Example 433, (2R)-3-methylbutan-2-yl [(2R,6S,12Z,13aS,14aR,16aS)-5′-ethyl-9′-methoxy-14a-{[(1-methylcyclopropyl)sulfonyl]carbamoyl}-5,16-dioxo-1,1′,2′,5,6,7,8,9,10,11,13a,14,14a,15,16,16a-hexadecahydrospiro[cyclopropa[e]pyrrolo[1,2-a][1,4]diazacyclopentadecine-2,3′-pyrano[2,3-c]quinolin]-6-yl]carbamate]	–	–	IC50 [1, 3]: 0.012 nM; EC50 (HCV genotype 1b replicon; HCV replicon, genotype 1b): 2.17 nM
Cc1ccc2nc(C)c3c(c2c1)CC[C@]1(C[C@H]2C(=O)N[C@]4(C(=O)NS(=O)(=O)C5(C)CC5)C[C@H]4/C=C\CCCCC[C@H](NC(=O)OCC(C)C)C(=O)N2C1)O3 [Example 108, 2-methylpropyl [(2R,6S,12Z,13aS,14aR,16aS)-5′,9′-dimethyl-14a-{[(1-methylcyclopropyl)sulfonyl]carbamoyl}-5,16-dioxo-1,1′,2′,5,6,7,8,9,10,11,13a,14,14a,15,16,16a-hexadecahydrospiro[cyclopropa[e]pyrrolo[1,2-a][1,4]diazacyclopentadecine-2,3′-pyrano[2,3-c]quinolin]-6-yl]carbamate]	0.007 nM	1.23 nM	–
Cc1nc2ccccc2c2c1O[C@]1(CC2O)C[C@H]2C(=O)N[C@]3(C(=O)NS(=O)(=O)C4(C)CC4)C[C@H]3/C=C\CCCCC[C@H](NC(=O)OC(C)C)C(=O)N2C1 (stereo partly drawn) [Example 119, propan-2-yl [(2S,6S,12Z,14aR,16aS)-1′-hydroxy-5′-methyl-14a-{[(1-methylcyclopropyl)sulfonyl]carbamoyl}-5,16-dioxo-1,1′,2′,5,6,7,8,9,10,11,13a,14,14a,15,16,16a-hexadecahydrospiro[cyclopropa[e]pyrrolo[1,2-a][1,4]diazacyclopentadecine-2,3′-pyrano[2,3-c]quinolin]-6-yl]carbamate]	0.031 nM	~78.5 nM	–
CC1(S(=O)(=O)NC(=O)[C@@]23C[C@H]2/C=C\CCCCC[C@H](NC(=O)OC2CCCC2)C(=O)N2C[C@@]4(CCc5c(c(C6CC6)nc6ccc(F)cc56)O4)C[C@H]2C(=O)N3)CC1 [Example 145, cyclopentyl [(2R,6S,12Z,13aS,14aR,16aS)-5′-cyclopropyl-9′-fluoro-14a-{[(1-methylcyclopropyl)sulfonyl]carbamoyl}-5,16-dioxo-1,1′,2′,5,6,7,8,9,10,11,13a,14,14a,15,16,16a-hexadecahydrospiro[cyclopropa[e]pyrrolo[1,2-a][1,4]diazacyclopentadecine-2,3′-pyrano[2,3-c]quinolin]-6-yl]carbamate]	0.006 nM	1.16 nM	–
